Active and inactive are the calls of the source. How the calls were made is not given here.
biological target: Ubiquitin-conjugating enzyme E2 N (Homo sapiens) (UniProt P61088); assay: NMR detection of UBE2N ligand binding – biophysical, purified protein (AID 1552); settings: NMR binding to purified UBE2N
Sequence (P61088 whole entry, looked up): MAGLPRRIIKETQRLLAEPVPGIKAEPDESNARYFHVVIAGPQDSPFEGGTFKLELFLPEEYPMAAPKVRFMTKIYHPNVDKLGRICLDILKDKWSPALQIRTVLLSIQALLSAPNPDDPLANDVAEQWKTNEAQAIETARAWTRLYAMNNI

Compound | Kd
COC(=O)Nc1c(C)n(C)n(-c2ccccc2)c1=O | > 4 mM (inactive)
O=C(CNC(=O)c1ccc(F)cc1)NC1=NCCS1 | > 4 mM (inactive)
COc1ccc2[nH]c(O)c(NC(C)=O)c2c1 | > 4 mM (inactive)
COc1c(CC=C(C)C)c2c(c3oc(=O)c(-c4ccc(O)cc4)c(O)c13)C=CC(C)(C)O2 | > 4 mM (inactive)
Nc1cccc(S(N)(=O)=O)c1 | > 4 mM (inactive)
Cc1cc(C(=O)Nc2ccon2)cs1 | > 4 mM (inactive)
COc1cc([C@@H]2c3cc4c(cc3[C@H](O)[C@H]3COC(=O)[C@@H]23)OCO4)cc(OC)c1OC | > 4 mM (inactive)
c1ccc(SCc2nc(-c3ccccn3)no2)cc1 | > 4 mM (inactive)
CN1CCC(O)N1C(=O)c1ccccc1O (centres undefined) | > 4 mM (inactive)
C=C[C@H]1CN2CC[C@H]1C[C@@H]2[C@H](O)c1ccnc2ccccc12 | > 4 mM (inactive)
Cn1nnc2cc(C(=O)NC3CCCCC3)ccc21 | > 4 mM (inactive)
O=C(NCN1CCOCC1)c1cnccn1 | > 4 mM (inactive)
O=C1CCCN1C(=O)c1ccc(F)cc1 | > 4 mM (inactive)
O=C1CSC(=Nc2cc(Cl)ccc2Cl)N1 | > 4 mM (inactive)
CCN1CC2(C)CC[C@H](OC)[C@]34C2[C@H](O)C2(OCO[C@@]25C[C@H](OC)[C@H]2C[C@]3(O)C5[C@H]2O)C14 | > 4 mM (inactive)
CN1CCN(C(=S)NC(=O)c2ccn(C)n2)CC1 | > 4 mM (inactive)
O=C(NCc1cccs1)c1nc2ncccn2n1 | > 4 mM (inactive)
CC(=O)O[C@H]1C(=O)[C@@]2(C)C([C@H](OC(=O)c3ccccc3)[C@]3(O)C[C@H](OC(=O)[C@H](O)[C@@H](NC(=O)c4ccccc4)c4ccccc4)C(C)=C1C3(C)C)[C@]1(OC(C)=O)CO[C@@H]1C[C@@H]2O (some centres undefined) | > 4 mM (inactive)
O=C(O)c1ccc2c(c1)OCCO2 | > 4 mM (inactive)
O=C(O)C1=CCCNC1 | > 4 mM (inactive)
C=C1C(=O)OC2CC1C(OC(C)=O)C/C(C)=C/CC/C(C)=C/CC[C@]2(C)O (some centres undefined) | > 4 mM (inactive)

Compound | Kd
CC(C)CCn1cnc2c1c(=O)n(C)c(=O)n2C | > 4 mM (inactive)
COc1nc(C)ccc1-c1noc(-c2ccncc2)n1 | > 4 mM (inactive)
CN1C2CC3C[C@H]1C(O3)C2O (some centres undefined) | > 4 mM (inactive)
O=C(Cc1c(F)cccc1Cl)Nc1ccncc1 | > 4 mM (inactive)
CCC(=O)n1nc(-c2ccco2)nc1N | > 4 mM (inactive)
CC(C)C(=O)NC(=S)N1CCOCC1 | > 4 mM (inactive)
COc1cccc(S(=O)(=O)Nc2cccnc2)c1 | > 4 mM (inactive)
CC1(C)CC[C@]2(C(=O)O)CC[C@]3(C)C(=CCC4[C@@]5(C)CC[C@H](O)[C@@](C)(CO)C5CC[C@]43C)C2C1 (some centres undefined) | > 4 mM (inactive)
Oc1ccccc1C(=S)N1CCCCCC1 | > 4 mM (inactive)
CNC(=O)CC1Sc2ccccc2NC1=O (centres undefined) | > 4 mM (inactive)
Nc1ccc(S(=O)(=O)Nc2nccs2)cc1 | > 4 mM (inactive)
Cc1cc(C)n2c(SCc3cccs3)nnc2n1 | > 4 mM (inactive)
Cc1occc1C(=O)Nc1ccc(C(N)=O)cc1 | > 4 mM (inactive)
Cc1onc(-c2c(Cl)cccc2Cl)c1C(N)=O | > 4 mM (inactive)
Cc1nc(-c2ccccc2)sc1C(N)=O | > 4 mM (inactive)
Nc1ccc(OCc2ccccc2)cc1 | > 4 mM (inactive)
Nc1cc(F)nc(F)n1 | > 4 mM (inactive)
NC(=O)CSc1ccc(Br)cc1 | > 4 mM (inactive)
O=c1cccc2n1CC1CC2CN2CCCC[C@@H]12 (some centres undefined) | > 4 mM (inactive)
COc1ccc2c(c1)OCC(Cc1ccc(OC)c(O)c1)C2=O (centres undefined) | > 4 mM (inactive)
COC(=O)C[C@H]1C2(C)CC34OC5(C)O[C@@]6([C@H](OC)C(OC(=O)C(C)C)[C@]7(C)C(/C(=C(/OC)C(C)C)C(=O)O[C@H]7c7ccoc7)[C@@]6(O5)[C@H](OC)[C@@]3(OC)C2OC(C)=O)[C@]14C (some centres undefined) | > 4 mM (inactive)

Compound | Kd
COc1ccc([C@H]2Oc3c(I)c(OC)cc(OC)c3C[C@@H]2O)cc1OC | > 4 mM (inactive)
Oc1ccc(-n2ccnc2)cc1 | > 4 mM (inactive)
CNC(=O)C1=NCCCc2cc(OC)c(OC)cc21 | > 4 mM (inactive)
CC(=O)Nc1ccc(C)cc1NC(C)=O | > 4 mM (inactive)
NC(=O)c1ccccc1N1CCCCC1 | > 4 mM (inactive)
NC1=C([N+](=O)[O-])C(=O)c2ccccc21 | > 4 mM (inactive)
Nc1ncnc2nc(SCCN3CCCCC3)[nH]c12 | > 4 mM (inactive)
Nc1cccc2nsnc12 | > 4 mM (inactive)
Cc1c(N=Cc2ccc[nH]2)c(=O)n(-c2ccccc2)n1C | > 4 mM (inactive)
CC(=O)/C=C\[C@@H]1[C@@]2(C)CCCC(C)(C)C2CC[C@@]1(C)O (some centres undefined) | > 4 mM (inactive)
CC1CN(C(=O)c2ccncc2)CC(C)O1 (centres undefined) | > 4 mM (inactive)
NCCCCN=C(N)N | > 4 mM (inactive)
OCC1COc2ccccc2C1 (centres undefined) | > 4 mM (inactive)
Nc1nc2ncc(=O)[nH]c2c(=O)[nH]1 | > 4 mM (inactive)
CN(C)S(=O)(=O)c1ccc(N2CCOCC2)nc1 | > 4 mM (inactive)
O=C(O)CCc1c[nH]c2ccccc12 | > 4 mM (inactive)
Nc1ccc2nccnc2c1 | > 4 mM (inactive)
CC(C)(C)CC(=O)N1CCC(C(N)=O)CC1 | > 4 mM (inactive)
Cc1ccccc1OCC(=O)O | > 4 mM (inactive)
Cc1n[nH]c(C)c1CN | > 4 mM (inactive)
CCCCCC1C(=O)CCC1CC(=O)OC (centres undefined) | > 4 mM (inactive)

Compound | Kd
S=C(NC1=NCCS1)Nc1ccccc1 | > 4 mM (inactive)
Cc1nnsc1C(=O)Nc1cccc(S(N)(=O)=O)c1 | > 4 mM (inactive)
O=C(O)Cn1cc(C(F)(F)F)ccc1=O | > 4 mM (inactive)
O=C(NC1=NCCS1)c1ccc2snnc2c1 | > 4 mM (inactive)
CCC[C@@H]1CCCCN1 | > 4 mM (inactive)
Nc1ccc(S(=O)(=O)Nc2ccc(F)cc2F)cc1 | > 4 mM (inactive)
COC(=O)c1cccc(C(F)(F)F)c1 | > 4 mM (inactive)
NC(=O)CN1C(=O)c2cccc3cccc1c23 | > 4 mM (inactive)
OCc1ccccc1N1CCOCC1 | > 4 mM (inactive)
NC(=O)CN1CCCCCC1=O | > 4 mM (inactive)
Cc1cc(C)nc(N(C#N)Cc2ccccc2)n1 | > 4 mM (inactive)
CC(C)CC(=O)Nc1c[nH]c(=O)[nH]c1=O | > 4 mM (inactive)
O=C(O)CS(=O)(=O)c1ccccc1 | > 4 mM (inactive)
Cc1ccccc1NC(=O)c1ocnc1C | > 4 mM (inactive)
N/C(=N/O)C1COc2ccccc2O1 (centres undefined) | > 4 mM (inactive)
c1cc(C(N2CCOCC2)N2CCOCC2)ccn1 | > 4 mM (inactive)
O=C(O)/C=C1\NC(=O)c2ccccc21 | > 4 mM (inactive)
COC[C@]12CN(C=O)C3[C@@H]4[C@H](OC)C1[C@]3(C1CC3(O)C(OC)C(O)C4(OC(C)=O)C1C3OC(=O)c1ccccc1)[C@@H](OC)C[C@H]2O (some centres undefined) | > 4 mM (inactive)
Nc1ncnc2c1ncn2[C@@H]1O[C@H](CO)[C@@H](O)[C@H]1O | > 4 mM (inactive)
Cc1ccc(-c2nnc3sc(-c4ccncc4)nn23)cc1 | > 4 mM (inactive)
Cn1c(CO)nc2cc(N)ccc21 | > 4 mM (inactive)
